Assay results as given in patent US20230095520A1, “PHARMACEUTICAL COMPOSITION FOR PREVENTING OR TREATING CANCER COMPRISING AZOLE DERIVATIVES OR PHARMACEUTICALLY ACCEPTABLE SALT THEREOF” (Yungjin Pharm. Co., Ltd., priority 2020, published 2023).

What was measured:
[1] = target: T1, Recombinant purified human CDK7 (Homo sapiens, UniProt P50613); assay: CDK7 activity inhibition, ADP-Glo kinase assay; format: biochemical; settings: ATP 90 μM, MBP substrate, 2 hours 30° C.
T1 construct: purchased ThermoFisher PV3868
T1 sequence (P50613 whole entry): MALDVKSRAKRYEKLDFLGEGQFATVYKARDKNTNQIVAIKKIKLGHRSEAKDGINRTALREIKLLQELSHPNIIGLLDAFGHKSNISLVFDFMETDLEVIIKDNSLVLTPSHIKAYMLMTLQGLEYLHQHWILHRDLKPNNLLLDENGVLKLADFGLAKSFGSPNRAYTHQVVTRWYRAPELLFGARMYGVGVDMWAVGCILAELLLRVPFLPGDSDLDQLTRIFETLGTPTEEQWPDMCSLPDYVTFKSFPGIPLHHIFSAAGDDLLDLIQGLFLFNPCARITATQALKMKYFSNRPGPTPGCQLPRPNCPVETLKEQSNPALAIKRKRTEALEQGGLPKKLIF
T1 sequence (P51946 whole entry partner): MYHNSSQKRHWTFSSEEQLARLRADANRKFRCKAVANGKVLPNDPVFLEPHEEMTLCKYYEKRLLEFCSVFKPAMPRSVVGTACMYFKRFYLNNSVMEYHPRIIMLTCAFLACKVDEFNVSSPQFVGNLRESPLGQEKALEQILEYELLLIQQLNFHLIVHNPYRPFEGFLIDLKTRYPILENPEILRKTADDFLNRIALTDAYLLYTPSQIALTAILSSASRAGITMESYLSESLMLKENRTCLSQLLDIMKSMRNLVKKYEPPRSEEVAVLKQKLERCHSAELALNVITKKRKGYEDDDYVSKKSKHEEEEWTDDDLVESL
T1 sequence (P51948 whole entry partner): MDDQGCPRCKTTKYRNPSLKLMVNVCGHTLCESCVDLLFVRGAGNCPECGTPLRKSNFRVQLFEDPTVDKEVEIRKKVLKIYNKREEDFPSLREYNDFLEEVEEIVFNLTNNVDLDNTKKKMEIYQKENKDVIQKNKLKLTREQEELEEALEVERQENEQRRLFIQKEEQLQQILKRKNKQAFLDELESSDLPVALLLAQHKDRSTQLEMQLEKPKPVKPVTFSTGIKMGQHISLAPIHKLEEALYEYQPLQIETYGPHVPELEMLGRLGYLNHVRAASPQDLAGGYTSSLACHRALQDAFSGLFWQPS
Method: Recombinant purified human CDK7 (ThermoFisher, PV3868) and ADP Glo Kinase Assay Kit (Promega, V9102) were used. CDK7 was diluted with 1× kinase reaction buffer (40 mM Tris-Cl, pH 7.5, 20 mM MgCl2, 0.1 mg/ml BSA and 50 μM DTT) and added to a 96 well plate (CDK7 final concentration per reaction: 50 ng). It was finally treated with the compound of the present invention to a 1% DMSO aqueous solution, and a substrate cocktail containing ATP (final concentration of 90 μM) and 0.2 μg/μl MBP (myelin basic protein) in a total of 25 μl reaction mass was added to a 96 well plate, thereby initiating the enzymatic reaction. After 2 hours of incubation (30° C.), an equal volume (25 μl per reaction) of ADP Glo was added and incubated at room temperature for 60 minutes (30° C.). Thereafter, kinase detection reagent (50 μl per reaction) was added and incubated at room temperature for 30 minutes (30° C.). The kinase activity was measured by the chemiluminescence method according to the ADP Glo Kinase Assay Kit instruction manual, and the CDK7 inhibitory activity of the compounds of the present invention was calculated.

MV-4-11 cells = assay: MV-4-11 cell proliferation inhibition (CCK-8); format: cell-based; settings: 72 hours; for inhibition at 0.1 µM / IC50: Homo sapiens; for inhibition at 0.1 µM: MV4-11, MV-4-11, compound concentration 100 nM, read-out: Inhibition rate (%); for IC50: MV4-11, MV-4-11 proliferation
Method: MV-4-11 cells are one of the acute myeloid leukemia cells with a Fms-like tyrosine kinase (FLT3) gene mutation, and these cells are used to test inhibition of proliferation and survival of leukemia cells.
MV-4-11 cells cultured in a 96-well cell culture plate were treated with the compound of the present invention and cultured for 72 hours. Thereafter, the antiproliferative effect of the compound was assayed by the CCK-8 method using a tetrazolium salt.

MDA-MB-468 cells = assay: MDA-MB-468 cell proliferation inhibition (MTT); format: cell-based; settings: MDA-MB-468, compound concentration 100 nM, 72 hours
Method: MDA-MB-468 cells are one of the triple-negative breast cancer (TNBC: negative for the expression of estrogen receptor, progesterone receptor and HER2) cells known as a malignant tumor that is difficult to diagnose at an early stage and has a high metastatic capacity, and these cells are used to test inhibition of proliferation and survival of breast cancer cells.
MDA-MB-468 cells cultured in a 96-well cell culture plate were treated with the compound of the present invention and cultured for 72 hours. Thereafter, the antiproliferative effect of the compound was assayed by the MTT method using a tetrazolium salt.

Row | Compound | IC50 [1] | IC50 (MV-4-11 cells) | also measured
1 | C=CC(=O)Nc1ccc(-c2cccc([C@H](C)C(=O)Nc3ncc(C4CC4)s3)c2)cn1 [Compound 14] | 28 nM | 45.8 nM | inhibition at 0.1 µM (MV-4-11 cells): 100%
2 | C[C@H](C(=O)Nc1ncc(C(F)(F)F)s1)c1cccc(-c2cnc(NC(=O)/C=C/CN(C)C)c(F)c2)c1 [Compound 99, (S,E)-4-(dimethylamino)-N-(3-fluoro-5-(3-(1-oxo-1-((5-(trifluoromethyl)thiazol-2-yl)amino)propan-2-yl)phenyl)pyridin-2-yl)but-2-enamide] | 7.6 nM | 12.7 nM | –
3 | CC(C(=O)Nc1ncc(C(F)(F)F)s1)c1cncc(-c2cnc(NC(=O)/C=C/CN(C)C)c(C#N)c2)c1 (centres unmarked) [Compound 108, (E)-N-(5-cyano-5′-(1-oxo-1-((5-(trifluoromethyl)thiazol-2-yl)amino)propan-2-yl)-[3,3′-bipyridin]-6-yl)-4-(dimethylamino)but-2-enamide] | 10.5 nM | 7.1 nM | –
4 | CC(C(=O)Nc1ncc(Cl)s1)c1cncc(-c2cnc(NC(=O)/C=C/CN(C)C)cn2)c1 (centres unmarked) [Compound 73, (E)-N-(5-(5-(1-((5-chlorothiazol-2-yl)amino)-1-oxopropan-2-yl)pyridin-3-yl)pyrazin-2-yl)-4-(dimethylamino)but-2-enamide] | 43.4 nM | 11 nM | –
5 | C[C@H](C(=O)Nc1ncc(C(F)(F)F)s1)c1cccc(-c2cnc(NC(=O)/C=C/CN3CC4CC3CO4)cn2)c1 (stereo partly drawn) [Compound 96, (E)-4-(2-oxa-5-azabicyclo[2.2.1]heptan-5-yl)-N-(5-(3-((S)-1-oxo-1-((5-(trifluoromethyl)thiazol-2-yl)amino)propan-2-yl)phenyl)pyrazin-2-yl)but-2-enamide] | 7.6 nM | 43.9 nM | –
6 | C=CC(=O)Nc1ncc(-c2cccc([C@H](C)C(=O)Nc3ncc(C4CC4)s3)c2)cc1F [Compound 29] | – | – | Inhibition rate (%) (MDA-MB-468 cells): 75%; Inhibition rate (%) (MV-4-11 cells; MV-4-11, compound concentration 100 nM): 100%
7 | CC(C(=O)Nc1ncc(C(F)(F)F)s1)c1cncc(-c2cnc(NC(=O)/C=C/CN3CCOCC3)cn2)c1 (centres unmarked) [Compound 74, (E)-4-morpholino-N-(5-(5-(1-oxo-1-((5-(trifluoromethyl)thiazol-2-yl)amino)propan-2-yl)pyridin-3-yl)pyrazin-2-yl)but-2-enamide] | 77 nM | 30.3 nM | –
8 | C=CC(=O)Nc1cnc(-c2cccc([C@H](C)C(=O)Nc3ncc(C(F)(F)F)s3)c2)cn1 [Compound 37, (S)-N-(5-(3-(1-oxo-1-((5-(trifluoromethyl)thiazol-2-yl)amino)propan-2-yl)phenyl)pyrazin-2-yl)acrylamide] | 17.8 nM | – | inhibition at 0.1 µM (MV-4-11 cells): 100%
9 | C=CC(=O)Nc1cnc(-c2cncc([C@H](C)C(=O)Nc3ncc(C(F)(F)F)s3)c2)cn1 [Compound 52, (S)-N-(5-(5-(1-oxo-1-((5-(trifluoromethyl)thiazol-2-yl)amino)propan-2-yl)pyridin-3-yl)pyrazin-2-yl)acrylamide] | 19.2 nM | 4.5 nM | –
10 | C[C@H](C(=O)Nc1ncc(C2CCC2)s1)c1cccc(-c2cnc(NC(=O)/C=C/CN(C)C)cn2)c1 [Compound 104, (S,E)-N-(5-(3-(1-((5-cyclobutylthiazol-2-yl)amino)-1-oxopropan-2-yl)phenyl)pyrazin-2-yl)-4-(dimethylamino)but-2-enamide] | 9 nM | 30.7 nM | –
11 | CC(C(=O)Nc1ncc(C(F)(F)F)s1)c1cncc(-c2cnc(NC(=O)/C=C/CN3CC4CC3CO4)cn2)c1 (centres unmarked) [Compound 83, (E)-4-(2-oxa-5-azabicyclo[2.2.1]heptan-5-yl)-N-(5-(5-(1-oxo-1-((5-(trifluoromethyl)thiazol-2-yl)amino)propan-2-yl)pyridin-3-yl)pyrazin-2-yl)but-2-enamide] | 23 nM | 6.9 nM | –
12 | C[C@H](C(=O)Nc1ncc(C2CC2)s1)c1cccc(-c2ccc(NC(=O)/C=C/CN(C)C)nc2)c1 [Compound 15] | 11 nM | – | inhibition at 0.1 µM (MV-4-11 cells): 100%
13 | C[C@H](C(=O)Nc1ncc(C(F)(F)F)s1)c1cccc(-c2cnc(NC(=O)/C=C/CN(C)C)c(C#N)c2)c1 [Compound 101, (S,E)-N-(3-cyano-5-(3-(1-oxo-1-((5-(trifluoromethyl)thiazol-2-yl)amino)propan-2-yl)phenyl)pyridin-2-yl)-4-(dimethylamino)but-2-enamide] | 4.3 nM | 12.3 nM | –
14 | C=CC(=O)Nc1ccc(-c2cncc(C(C)C(=O)Nc3ncc(C(F)(F)F)s3)c2)cn1 (centres unmarked) [Compound 82, N-(5′-(1-oxo-1-((5-(trifluoromethyl)thiazol-2-yl)amino)propan-2-yl)-[3,3′-bipyridin]-6-yl)acrylamide] | 36 nM | 9.1 nM | –
15 | CC(C(=O)Nc1ncc(C(F)(F)F)s1)c1cncc(-c2cnc(NC(=O)/C=C/CN(C)C)cn2)c1 (centres unmarked) [Compound 63, (E)-4-(dimethylamino)-N-(5-(5-(1-oxo-1-((5-(trifluoromethyl)thiazol-2-yl)amino)propan-2-yl)pyridin-3-yl)pyrazin-2-yl)but-2-enamide] | 17.8 nM | 5.2 nM | –
16 | C[C@H](C(=O)Nc1ncc(C(F)(F)F)s1)c1cccc(-c2cnc(NC(=O)/C=C/CN3CCOCC3)cn2)c1 [Compound 92, (S,E)-4-morpholino-N-(5-(3-(1-oxo-1-((5-(trifluoromethyl)thiazol-2-yl)amino)propan-2-yl)phenyl)pyrazin-2-yl)but-2-enamide] | 42 nM | – | –
17 | CC(C(=O)Nc1ncc(C(F)(F)F)s1)c1cncc(-c2ccc(NC(=O)/C=C/CN(C)C)nc2)c1 (centres unmarked) [Compound 107, (E)-4-(dimethylamino)-N-(5′-(1-oxo-1-((5-(trifluoromethyl)thiazol-2-yl)amino)propan-2-yl)-[3,3′-bipyridin]-6-yl)but-2-enamide] | 31 nM | – | –
18 | C[C@H](C(=O)Nc1ncc(Cl)s1)c1cccc(-c2cnc(NC(=O)/C=C/CN3CC4CC3CO4)cn2)c1 (stereo partly drawn) [Compound 94, (E)-4-(2-oxa-5-azabicyclo[2.2.1]heptan-5-yl)-N-(5-(3-((S)-1-((5-chlorothiazol-2-yl)amino)-1-oxopropan-2-yl)phenyl)pyrazin-2-yl)but-2-enamide] | 14.5 nM | – | –
19 | C[C@H](C(=O)Nc1ncc(C(F)(F)F)s1)c1cccc(-c2cnc(NC(=O)/C=C/CN3CC[C@H](F)C3)cn2)c1 [Compound 117, (E)-4-((S)-3-fluoropyrrolidin-1-yl)-N-(5-(3-((S)-1-oxo-1-((5-(trifluoromethyl)thiazol-2-yl)amino)propan-2-yl)phenyl)pyrazin-2-yl)but-2-enamide] | 15.4 nM | – | –
20 | CCc1cnc(NC(=O)C2(c3cccc(-c4cnc5c(c4)CCN5C(=O)/C=C/CN(C)C)c3)CC2)s1 [Compound 133, (E)-1-(3-(1-(4-(dimethylamino)but-2-enoyl)-2,3-dihydro-1H-pyrrolo[2,3-b]pyridin-5-yl)phenyl)-N-(5-ethylthiazol-2-yl)cyclopropane-1-carboxamide] | 47 nM | – | –
21 | C[C@H](C(=O)Nc1ncc(C(F)(F)F)s1)c1cccc(-c2cnc(NC(=O)/C=C/CN3CCCC3)cn2)c1 [Compound 102, (S,E)-N-(5-(3-(1-oxo-1-((5-(trifluoromethyl)thiazol-2-yl)amino)propan-2-yl)phenyl)pyrazin-2-yl)-4-(pyrrolidin-1-yl)but-2-enamide] | 13 nM | – | –
22 | C[C@H](C(=O)Nc1ncc(C(F)(F)F)s1)c1cccc(-c2cnc(NC(=O)/C=C/CN3CCC3)cn2)c1 [Compound 103, (S,E)-4-(azetidin-1-yl)-N-(5-(3-(1-oxo-1-((5-(trifluoromethyl)thiazol-2-yl)amino)propan-2-yl)phenyl)pyrazin-2-yl)but-2-enamide] | 13 nM | – | –
23 | C[C@H](C(=O)Nc1ncc(C(F)(F)F)s1)c1cccc(-c2cnc3c(c2)CCN3C(=O)/C=C/CN(C)C)c1 [Compound 110, (S,E)-2-(3-(1-(4-(dimethylamino)but-2-enoyl)-2,3-dihydro-1H-pyrrolo[2,3-b]pyridin-5-yl)phenyl)-N-(5-(trifluoromethyl)thiazol-2-yl)propanamide] | 5.9 nM | – | –
24 | CCN(CC)C/C=C/C(=O)Nc1cnc(-c2cccc([C@H](C)C(=O)Nc3ncc(C(F)(F)F)s3)c2)cn1 [Compound 114, (S,E)-4-(diethylamino)-N-(5-(3-(1-oxo-1-((5-(trifluoromethyl)thiazol-2-yl)amino)propan-2-yl)phenyl)pyrazin-2-yl)but-2-enamide] | 12 nM | – | –
25 | C=CC(=O)Nc1cc(F)c(-c2cncc(C(C)C(=O)Nc3ncc(C(F)(F)F)s3)c2)cn1 (centres unmarked) [Compound 84, N-(4-fluoro-5′-(1-oxo-1-((5-(trifluoromethyl)thiazol-2-yl)amino)propan-2-yl)-[3,3′-bipyridin]-6-yl)acrylamide] | 68 nM | – | –
